≈ marks a conversion by molar mass, not a printed value. Where a SMILES comes first, the peptide text is derived from it. [ ]: non-standard residue; d: D form.
What was measured:
[1] = test system: C57BL/6NCrl mice; test: In vivo acute toxicity, intratracheal; set-up: species or system mouse
Method: In vivo acute toxicity of D-BMAP18 was evaluated in C57BL/6NCrl mice (n = 5/group) (male; 22 g; 6 ± 2 week-old) obtained from Charles River Laboratories Italia S.r.l. (Calco, Milan, Italy). Mice were intra-tracheally challenged with increasing doses (1, 2, 4, and 8 mg/kg) of D-BMAP18 prepared in sterile distilled water. Control mice received vehicle only (sterile distilled water). General health and animal behavior (ruffled coats, huddled position, lack of retreat in handler's presence), weight loss, and survival were monitored daily over a 5-day period, comparatively to control mice. […] Subsequently, lungs were removed en bloc from the chest via sterile excision and immediately weighed. These experiments were carried out in accordance with the recommendations of the Guide for the Care and Use of Laboratory Animals of the National Institute of Health and in accordance with the ethical standards of the Animal Care Committee of the “G. d'Annunzio” University of Chieti-Pescara. The protocol was approved by the Animal Care Committee of the “G. d'Annunzio” University of Chieti-Pescara.

[2] = test system: P. aeruginosa; type: cell-based, Pseudomonas aeruginosa; conditions: 24 h
Method: P. aeruginosa, S. maltophilia, and Staphylococcus aureus strains were originally isolated from respiratory specimens of CF patients admitted to the “Bambino Gesù” Children Hospital in Rome and previously tested with AMPs (Pompilio et al., [2012]). P. aeruginosa RP73, and PAO1 were tested as reference strains.
(§1) MIC values were determined using the broth microdilution method.

[3] = test system: S. aureus SA2; conditions: D-BMAP18; strain SA2; broth microdilution, MH broth, 37°C 24 h; n = 6
Method: (§2) MIC values were determined using the broth microdilution method. Briefly, serial 2-fold dilutions of each peptide were prepared in Mueller-Hinton broth (MH; Difco) and aliquoted in round-bottom 96 well microtiter plates (Sarstedt). Each well was inoculated with a standardized inoculum to achieve a final test concentration of about 5 × 10^5 CFU/ml. […] To calculate the MBC, following the 24 h-incubation of the MIC assay, 25 μl of broth from clear wells were plated on MH agar plates, and incubated at 37°C for 24 h. MBC was defined as the lowest concentration of the peptide killing at least 99.9% of the original inoculum.

[4] = test system: S. maltophilia SM105; test: MIC/MBC broth microdilution; type: cell-based, Stenotrophomonas maltophilia; conditions: D-BMAP18, strain SM105, n = 6
Method: as §1

[5] = test system: S. maltophilia SM122; test: MIC/MBC broth microdilution; type: cell-based, Stenotrophomonas maltophilia; conditions: D-BMAP18, strain SM122, n = 6
Method: as §1

[6] = test system: S. aureus SA5; test: MIC broth microdilution; type: cell-based, Staphylococcus aureus; conditions: D-BMAP18, strain SA5, MH broth, 37°C 24 h, n = 6
Method: as §1

[7] = test system: S. aureus SA7; test: MIC broth microdilution; type: cell-based, Staphylococcus aureus; conditions: D-BMAP18, strain SA7, MH broth, 37°C 24 h, n = 6
Method: as §1

[8] = test system: S. aureus SA4; test: MIC broth microdilution; type: cell-based, Staphylococcus aureus; conditions: D-BMAP18, strain SA4, MH broth, 37°C 24 h, n = 6
Method: as §1

[9] = test system: S. aureus SA3; test: MIC broth microdilution; type: cell-based, Staphylococcus aureus; conditions: D-BMAP18, strain SA3, MH broth, 37°C 24 h, n = 6
Method: as §1

[10] = test system: P. aeruginosa PA09; test: MIC/MBC broth microdilution; type: cell-based, Pseudomonas aeruginosa; conditions: D-BMAP18, strain PA09, n = 6
Method: as §1

[11] = test system: P. aeruginosa PA14; test: MIC/MBC broth microdilution; type: cell-based, Pseudomonas aeruginosa; conditions: D-BMAP18, strain PA14, n = 6
Method: as §1

[12] = test system: P. aeruginosa PA21; test: MIC/MBC broth microdilution; type: cell-based, Pseudomonas aeruginosa; conditions: D-BMAP18, strain PA21, n = 6
Method: as §1

[13] = test system: P. aeruginosa PA31; test: MIC/MBC broth microdilution; type: cell-based, Pseudomonas aeruginosa; conditions: D-BMAP18, strain PA31, n = 6
Method: as §1

[14] = test system: P. aeruginosa RP73; test: MIC/MBC broth microdilution; type: cell-based, Pseudomonas aeruginosa; conditions: D-BMAP18, strain RP73, n = 6
Method: as §1

[15] = test system: P. aeruginosa PA10; test: MIC/MBC broth microdilution; type: cell-based, Pseudomonas aeruginosa; conditions: D-BMAP18, strain PA10, n = 6
Method: as §1

[16] = test system: P. aeruginosa PA05; test: MIC/MBC broth microdilution; type: cell-based, Pseudomonas aeruginosa; conditions: D-BMAP18, strain PA05, n = 6
Method: as §1

[17] = test system: P. aeruginosa PA01; test: MIC/MBC broth microdilution; type: cell-based, Pseudomonas aeruginosa; conditions: D-BMAP18, strain PA01, n = 6
Method: as §1

[18] = test system: P. aeruginosa PA07; test: MIC/MBC broth microdilution; type: cell-based, Pseudomonas aeruginosa; conditions: D-BMAP18, strain PA07, n = 6
Method: as §1

[19] = test system: P. aeruginosa PA22; test: MIC/MBC broth microdilution; type: cell-based, Pseudomonas aeruginosa; conditions: D-BMAP18, strain PA22, n = 6
Method: as §1

[20] = test system: P. aeruginosa PA03; test: MIC/MBC broth microdilution; type: cell-based, Pseudomonas aeruginosa; conditions: D-BMAP18, strain PA03, n = 6
Method: as §1

[21] = test system: P. aeruginosa PA08; test: MIC/MBC broth microdilution; type: cell-based, Pseudomonas aeruginosa; conditions: D-BMAP18, strain PA08, n = 6
Method: as §1

[22] = test system: S. aureus SA1; conditions: D-BMAP18; strain SA1; broth microdilution, MH broth, 37°C 24 h; n = 6
Method: as §2

[23] = broth microdilution, MH broth, 37°C 24 h
[24] = kills at least 99.9% of inoculum

## CC(C)C[C@@H](NC(=O)[C@@H](CCCCN)NC(=O)[C@@H](CCCCN)NC(=O)[C@@H](Cc1ccccc1)NC(=O)[C@@H](CC(C)C)NC(=O)[C@@H](CCCCN)NC(=O)[C@@H](CCCCN)NC(=O)[C@@H](Cc1ccccc1)NC(=O)[C@@H](CCCCN)NC(=O)[C@@H](CCCCN)NC(=O)[C@@H](CCCNC(=N)N)NC(=O)[C@@H](Cc1ccccc1)NC(=O)[C@@H](CCCNC(=N)N)NC(=O)[C@@H](CCCCN)NC(=O)[C@@H](Cc1ccccc1)NC(=O)[C@@H](CCCNC(=N)N)NC(=O)CN)C(=O)N[C@H](CO)C(N)=O [D-BMAP18] (H-G[dR][dF][dK][dR][dF][dR][dK][dK][dF][dK][dK][dL][dF][dK][dK][dL][dS]-NH2)
[1]; 1 mg/kg single intratracheal instillation, day 5 p.e., n = 5/group
  macroscopic lung pathology (four-point score): No pulmonary damage
[1]; 2 mg/kg single intratracheal instillation, day 5 p.e., n = 5/group, p < 0.05 vs control
  macroscopic lung pathology, median score (four-point scoring): 2.5
[1]; 8 mg/kg single intratracheal instillation, day 5 p.e., n = 5/group, p < 0.01 vs control
  macroscopic lung pathology, median score (four-point scoring): 3
[1]; 1, 2, 4, 8 mg/kg intratracheal, first 2 days p.e., regardless of dose, vs unexposed control
  change in body weight, first 2 days: significant (p<0.01) decrease
[1]; 1-8 mg/kg intratracheal, over 5 days p.e., also at the lowest dose, dose-dependent
  change in body weight: significant reduction in body weight
[2]
  MIC90: 16 µg/mL (≈ 6.83 µM)
[3]
  MIC: >32 µg/mL
[4]; [23]
  MIC: 8 µg/mL (≈ 3.42 µM)
[4]; [24]
  MBC: 8 µg/mL (≈ 3.42 µM)
[5]; [23]
  MIC: 16 µg/mL (≈ 6.83 µM)
[5]; [24]
  MBC: 16 µg/mL (≈ 6.83 µM)
[6]
  MIC: >32 µg/mL
[7]
  MIC: >32 µg/mL
[8]
  MIC: >32 µg/mL
[9]
  MIC: >32 µg/mL
[10]; [23]
  MIC: 16 µg/mL (≈ 6.83 µM)
[10]; [24]
  MBC: 32 µg/mL (≈ 13.7 µM)
[11]; [23]
  MIC: 16 µg/mL (≈ 6.83 µM)
[11]; [24]
  MBC: 32 µg/mL (≈ 13.7 µM)
[12]; [23]
  MIC: 16 µg/mL (≈ 6.83 µM)
[12]; [24]
  MBC: 32 µg/mL (≈ 13.7 µM)
[13]; [23]
  MIC: 16 µg/mL (≈ 6.83 µM)
[13]; [24]
  MBC: 32 µg/mL (≈ 13.7 µM)
[14]; [23]
  MIC: 4 µg/mL (≈ 1.71 µM)
[14]; [24]
  MBC: 8 µg/mL (≈ 3.42 µM)
[15]; [23]
  MIC: 16 µg/mL (≈ 6.83 µM)
[15]; [24]
  MBC: 32 µg/mL (≈ 13.7 µM)
[16]; [23]
  MIC: 4 µg/mL (≈ 1.71 µM)
[16]; [24]
  MBC: 8 µg/mL (≈ 3.42 µM)
[17]; [23]
  MIC: 8 µg/mL (≈ 3.42 µM)
[17]; [24]
  MBC: 32 µg/mL (≈ 13.7 µM)
[18]; [23]
  MIC: 8 µg/mL (≈ 3.42 µM)
[18]; [24]
  MBC: 8 µg/mL (≈ 3.42 µM)
[19]; [23]
  MIC: 4 µg/mL (≈ 1.71 µM)
[19]; [24]
  MBC: 32 µg/mL (≈ 13.7 µM)
[20]; [23]
  MIC: 8 µg/mL (≈ 3.42 µM)
[20]; [24]
  MBC: 8 µg/mL (≈ 3.42 µM)
[21]; [23]
  MIC: 8 µg/mL (≈ 3.42 µM)
[21]; [24]
  MBC: 16 µg/mL (≈ 6.83 µM)
[22]
  MIC: >32 µg/mL

— publication PMC5474674, “D-BMAP18 Antimicrobial Peptide Is Active In vitro, Resists to Pulmonary Proteases but Loses Its Activity in a Murine Model of Pseudomonas aeruginosa Lung Infection” (Frontiers in Chemistry, 2017)
